Experimental data published in patent publication US9192559B2, “Compositions” (Givaudan SA, priority 2006, dated 2015).

Legend:
A. niger spores = test: Activity against A. niger spores in skin cream Cremor basalis; assay type: cell-based, Aspergillus niger
Procedure: (§1) A preservative-free oil-in-water emulsion skin cream is used. Test samples of cream are made up to contain different amounts of diol compounds and/or benzaldehyde derivatives. The diol compound and the benzaldehyde derivatives is added to an aliquot of 10 g of the cream in 50 ml tubes in a concentration as shown in the table below. After addition of the preservative/preservative enhancer, the cream is thoroughly mixed to achieve a homogeneous distribution. The cream is then stored for 1-3 days to equilibrate at room temperature (in order to achieve a homogenous partitioning of compounds between oil and water phase).
(§2) For testing of sporicidal effect, to each sample 100 μl of a spore suspension of Aspergillus niger ATCC 16404 containing 3×10^7 spores/ml (prepared as described in example 1) is added.
(§3) After regular test intervals, samples of 1 g cream are removed and added to 20 ml of a neutralizer solution containing 0.2% lecithin, 2% Tween 80 and 0.5% NaCl. These dilutions are vigorously shaken for 10 min until the cream is dissolved, and then aliquots of this solution are spread plated on potato dextrose agar containing 0.2% Tween 80. After 48 h to 72 h the number of surviving colony forming units (and therefore surviving spores) are counted.
The example is performed as described in example 2 except for the following changes:
The preservative-free cosmetic cream for application to the human skin is Cremor basalis (commercially available from Fagron GmbH, Barsbüttel, Germany).

[1] = system: Aspergillus niger ATCC 16404 spores; test: Sporicidal effect of test compounds in water; assay type: cell-based; conditions: 0.1% test compound in water; for Sporicidal effect (reduction of spore counts), in words: 7 days
Procedure: Aspergillus niger ATCC 16404 spores are added to water to obtain a density of 3×10^5 spores/ml.
In order to prepare the spores, the test strain is grown for 5 days on potato dextrose agar at room temperature. The spores are harvested with a solution containing 0.1% Tween 80, peptone 0.1% and NaCl 0.85% and the spore concentration is adjusted to the density indicated above.
Test compounds are dissolved in dipropyleneglycol to a concentration of 20%.
These stock solutions are added to 10 ml aliquots of the spore suspension to obtain a final concentration of the test compounds of 0.1%. The sporicidal effect is shown by a reduction of spore counts after 7 days.
The reduction factor is determined as follows. Aliquots of the above prepared suspension of microorganisms (here: spore suspension prepared as described above) are plated on a suitable agar medium (see above) and the developing colonies are counted both for samples with test compound and for a negative probe (water). The count of the negative control is divided by the count of the test compound and thereby the reduction factor is determined. A negative control (water) accordingly has a reduction factor of 1 (no effect on the microorganism).

[2] = system: Aspergillus niger ATCC 16404 spores; test: Sporicidal activity in a preservative-free oil-in-water emulsion skin cream; assay type: cell-based; conditions: 0.1% 4-hydroxybenzaldehyde, 0% diol, listed as benzaldehyde derivative
Procedure: as §1, §2, §3
The count of the negative control is divided by the count of the probe and thereby the reduction factor is determined.

## CC(CO)CO [2-Methyl-1,3-propandiol, 2-Methyl-1,3-propanediol]
A. niger spores; preservative 2%, no 4-HBA
  Reduction factor fungal spores, 7d: 3.3
A. niger spores; preservative 4%, no 4-HBA
  Reduction factor fungal spores, 7d: 25.9

## C=CCCCCCCCCO [9-decenol]
[1]
  Sporicidal effect (reduction of spore counts), in words: significant sporicidal effect

## O=Cc1ccc(O)cc1 [4-hydroxybenzaldehyde]
[2]
  reduction factor 7d fungal spores: no sporicidal effect
A. niger spores; 0.5% 4-hydroxybenzaldehyde on its own
  Reduction factor fungal spores, 7d: 57.6
A. niger spores; no added diol, 0.125% 4-HBA
  Reduction factor fungal spores, 7d: 5.5
[1]
  Sporicidal effect (reduction of spore counts), in words: No significant reduction of spore counts

## COc1ccc(C=O)cc1 [4-methoxy-benzaldehyde]
[1]
  Sporicidal effect (reduction of spore counts), in words: No significant reduction of spore counts

## CCCCC(CC)COCC(O)CO (centres unmarked) [3-(2-ethyl-hexyloxy)-1,2-propandiol, 3-(2-ethylhexyloxy)propane-1,2-diol]
A. niger spores; preservative 0.25%, no 4-HBA
  Reduction factor fungal spores, 7d: 3.9
A. niger spores; preservative 0.5%, no 4-HBA
  Reduction factor fungal spores, 7d: 57.6

## CC(C)c1ccc(CO)cc1 [Cuminic alcohol]
[1]; after 7 days
  Spores/ml: >1.2 × 10^5 Spores/ml
[1]; after 7 days, count of negative control / count of test compound
  Reduction factor: <2

## CCCCCCC(O)CO (centres unmarked) [1,2-Octandiol, 1,2-octanediol]
A. niger spores; preservative 0.25%, no 4-HBA
  Reduction factor fungal spores, 7d: 2.2

## CC(CC=O)CCc1ccccc1 (centres unmarked) [Mefranal, 3-methyl-5-phenylpentanal]
[1]
  Sporicidal effect (reduction of spore counts), in words: significant sporicidal effect
